Values after ≈ are worked out from the molar mass of the structure shown.
Assays:
[1] = Solubility of Compound 1 at room temperature in various solvents and solvent mixtures; type: physicochemical
[2] = Solubility of Compound 1 at elevated temperatures in various solvents; type: physicochemical; settings: organic solvent or mixture

solubility ([1]; aqueous with cosolvent or surfactant or cyclodextrin, solvent Acetone:H2O 20:80): < 8.9 mg/mL
solubility ([1]; organic solvent or mixture, solvent 2-Butanone (MEK)): 10.5 mg/mL (≈ 22 mM)
solubility ([1]; organic solvent or mixture, solvent Acetone): 11 mg/mL (≈ 23 mM)
solubility ([1]; organic solvent or mixture, solvent Acetonitrile): 1.6 mg/mL (≈ 3.35 mM)
solubility ([1]; organic solvent or mixture, solvent EtOH): 1.6 mg/mL (≈ 3.35 mM)
solubility ([1]; organic solvent or mixture, solvent THF): 35 mg/mL (≈ 73.3 mM)
solubility ([2]; solvent Acetone, 40° C.): 61 mg/mL (≈ 128 mM)
solubility ([2]; solvent Acetone, Boiling point (56° C.)): 67 mg/mL (≈ 140 mM)
solubility ([2]; solvent MeOH, 40° C.): 33 mg/mL (≈ 69.1 mM)
solubility ([2]; solvent MeOH, 50° C.): 36 mg/mL (≈ 75.4 mM)
solubility ([2]; solvent MeOH, Boiling point (65° C.)): 92 mg/mL (≈ 193 mM)
solubility ([2]; solvent THF, 40° C.): 75 mg/mL (≈ 157 mM)
solubility ([2]; solvent THF, Boiling point (65° C.)): 115 mg/mL (≈ 241 mM)
solubility ([2]; solvent Toluene, 50° C.): < 2.3 mg/mL
solubility ([2]; solvent t-Butyl methyl ether (MTBE), 45° C.): < 10.4 mg/mL
SMILES: CC[C@@H](CC#N)OC(=O)N[C@@H](C)c1cccc(NC(=O)Nc2ccc(-c3cnco3)c(OC)c2)c1 [Compound 1, (S)-1-cyanobutan-2-yl (S)-1-(3-(3-(3-methoxy-4-(oxazol-5-yl)phenyl)ureido)phenyl)ethylcarbamate]

Source: patent US7829723B2, “Polymorphic forms of (S)-1-cyanobutan-2-yl (S)-1-(3-3-(3-methoxy-4-(oxazol-5-yl)phenyl)uriedo)phenyl)ethylcarbamate” (Vertex Pharmaceuticals Incorporated, priority 2005, dated 2010)
